Patent US20100004240A1, “Indole Compounds” (Glaxo Group Limited, priority 2006, published 2010)
Where a name gives a salt, the structure may show the parent alone.

Legend:
[1] = target: T1, human prostanoid EP1 receptor (Homo sapiens, UniProt P34995); test: binding assay for the human prostanoid EP1 receptor (competition with [3H]-PGE2); conditions: [3H]-PGE2 competition, CHO-K1 cell membranes expressing human EP1; averages of a number of experiments; read-out: pIC50 value (converted)
T1 construct: expressed in transfected cells; host or cells: CHO-K1 cells, membrane fraction
T1 sequence (P34995 1-402): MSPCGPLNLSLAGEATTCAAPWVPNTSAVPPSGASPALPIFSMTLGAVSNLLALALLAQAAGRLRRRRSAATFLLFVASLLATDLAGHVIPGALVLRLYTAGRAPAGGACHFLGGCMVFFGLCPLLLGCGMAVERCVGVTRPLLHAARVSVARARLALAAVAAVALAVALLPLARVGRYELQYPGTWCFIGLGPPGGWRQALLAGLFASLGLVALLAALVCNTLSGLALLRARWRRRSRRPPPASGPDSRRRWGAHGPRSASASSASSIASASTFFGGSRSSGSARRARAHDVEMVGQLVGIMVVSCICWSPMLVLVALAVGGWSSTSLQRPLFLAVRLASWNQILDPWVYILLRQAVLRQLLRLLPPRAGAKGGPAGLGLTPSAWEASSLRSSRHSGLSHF
Description: Competition assay using [^3H]-PGE2.
Compound potencies are determined using a radioligand binding assay. In this assay compound potencies are determined from their ability to compete with tritiated prostaglandin E2 ([^3H]-PGE2) for binding to the human EP1 receptor.
This assay utilises Chinese hamster ovary-K1 (CHO-K1) cells into which a stable vector containing the EP1 cDNA has previously been transfected. Cells are cultured in suitable flasks containing culture medium such as DMEM:F-12 supplemented with 10% v/v foetal calf serum, 2 mM L-glutamine, 0.25 mg/ml geneticin, 10 μg/ml puromycin and 10 μM indomethacin.
Cells are detached from the culture flasks by incubation in calcium and magnesium free phosphate buffered saline containing 1 mM disodium ethylenediaminetetraacetic acid (Na2EDTA) and 10 μM indomethacin for 5 min. The cells are isolated by centrifugation at 250×g for 5 mins and suspended in an ice cold buffer such as 50 mM Tris, 1 mM Na2EDTA, 140 mM NaCl, 10 μM indomethacin (pH 7.4). The cells are homogenised using a Polytron tissue disrupter (2×10s burst at full setting), centrifuged at 48,000×g for 20 mins and the pellet containing the membrane fraction is washed (optional) three times by suspension and centrifugation at 48,000×g for 20 mins. The final membrane pellet is suspended in an assay buffer such as 10 mM 2-[N-morpholino]ethanesulphonic acid, 1 mM Na2EDTA, 10 mM MgCl2 (pH 6). Aliquots are frozen at −80° C. until required.
For the binding assay the cell membranes, competing compounds and [^3H]-PGE2 (3 nM final assay concentration) are incubated in a final volume of 100 μl for 30 min at 30^O C. All reagents are prepared in assay buffer. Reactions are terminated by rapid vacuum filtration over GF/B filters using a Brandell cell harvester. The filters are washed with ice cold assay buffer, dried and the radioactivity retained on the filters is measured by liquid scintillation counting in Packard TopCount scintillation counter.
The data are analysed using non linear curve fitting techniques to determine the concentration of compound producing 50% inhibition of specific binding (IC50).

human EP1 receptor = target: T2, human EP1 receptor (Homo sapiens, UniProt P34995); test: human EP1 calcium mobilisation assay; format: cell-based; conditions: for Ki: antagonism of PGE2-induced calcium mobilisation, CHO-K1 cells expressing human EP1, averages of a number of experiments, read-out: functional pKi value (converted)
T2 construct: expressed in transfected cells; host or cells: CHO-K1 cells
T2 sequence (P34995 1-402): T1 sequence (P34995 1-402)
Description: Briefly, the antagonist properties of compounds are assessed by their ability to inhibit the mobilisation of intracellular calcium ([Ca^2+]i) in response to activation of EP1 or EP3 receptors by the natural agonist hormone prostaglandin E2 (PGE2). Increasing concentrations of antagonist reduce the amount of calcium that a given concentration of PGE2 can mobilise. The net effect is to displace the PGE2 concentration-effect curve to higher concentrations of PGE2. The amount of calcium produced is assessed using a calcium-sensitive fluorescent dye such as Fluo-4, AM and a suitable instrument such as a Fluorimetric Imaging Plate Reader (FLIPR). Increasing amounts of [Ca^2+]i produced by receptor activation increase the amount of fluorescence produced by the dye and give rise to an increasing signal. The signal may be detected using the FLIPR instrument and the data generated may be analysed with suitable curve-fitting software.
The human EP1 or EP3 calcium mobilisation assay (hereafter referred to as ‘the calcium assay’) utilises Chinese hamster ovary-K1 (CHO-K1) cells into which a stable (pClN; BioTechniques 20 (1996): 102-110) vector containing either EP1 or EP3 cDNA has previously been transfected. Cells are cultured in suitable flasks containing culture medium such as DMEM:F-12 supplemented with 10% v/v foetal calf serum, 2 mM L-glutamine, 0.25 mg/ml geneticin, 100 μM flurbiprofen and 10 μg/ml puromycin.
For assay, cells are harvested using a proprietary reagent that dislodges cells such as Versene. Cells are re-suspended in a suitable quantity of fresh culture media for introduction into a 384-well plate. Following incubation for 24 hours at 37° C. the culture media is replaced with a medium containing Fluo-4 and the detergent pluronic acid, and a further incubation takes place. Concentrations of compounds are then added to the plate in order to construct concentration-effect curves. This may be performed on the FLIPR in order to assess the agonist properties of the compounds. Concentrations of PGE2 are then added to the plate in order to assess the antagonist properties of the compounds.
The data so generated may be analysed by means of a computerised curve-fitting routine. The concentration of compound that elicits a half-maximal inhibition of the calcium mobilisation induced by PGE2 (pIC50) may then be estimated.

IC50 [1] [µM] | Ki (human EP1 receptor) [µM] | SMILES | activity in the calcium mobilisation assay (human EP1 receptor; human EP1, CHO-K1 cells)
≤ 1 | ≤ 1 | O=C(c1coc(-c2cn(C3CCCC3)c3ccc(Cl)cc23)n1)N1CCOCC1 [Example 4, 5-Chloro-1-cyclopentyl-3-[4-(4-morpholinylcarbonyl)-1,3-oxazol-2-yl]-1H-indole] | 
 | ≤ 0.316 | CC(C)Cn1cc(-c2nc(C(=O)Nc3ccccn3)co2)c2cc(Cl)ccc21 [Example 6, 2-[5-Chloro-1-(2-methylpropyl)-1H-indol-3-yl]-N-2-pyridinyl-1,3-oxazole-4-carboxamide] | 
≤ 0.316 | ≤ 0.316 | CC(C)Cn1cc(-c2nc(C(N)=O)co2)c2cc(Cl)ccc21 [Example 8, 2-[5-Chloro-1-(2-methylpropyl)-1H-indol-3-yl]-1,3-oxazole-4-carboxamide] | 
≤ 0.316 | ≤ 0.316 | CC(C)Cn1cc(-c2nc(-c3nc4ccccc4[nH]3)co2)c2cc(Cl)ccc21 [Example 9, 2-{2-[5-Chloro-1-(2-methylpropyl)-1H-indol-3-yl]-1,3-oxazol-4-yl}-1H-benzimidazole hydrochloride] | 
≤ 0.316 | ≤ 1 | CC(C)Cn1cc(-c2nc(-c3nc4ncccc4[nH]3)co2)c2cc(Cl)ccc21 [Example 10, 2-{2-[5-Chloro-1-(2-methylpropyl)-1H-indol-3-yl]-1,3-oxazol-4-yl}-1H-imidazo[4,5-b]pyridine] | 
≤ 0.316 |  | CC(C)Cn1cc(-c2nc(-c3nc4ccc(CN5CCCCC5)cc4[nH]3)co2)c2cc(Cl)ccc21 [Example 12, 2-{2-[5-Chloro-1-(2-methylpropyl)-1H-indol-3-yl]-1,3-oxazol-4-yl}-5-(1-piperidinylmethyl)-1H-benzimidazole dihydrochloride] | 
≤ 0.316 |  | CC(C)Cn1cc(-c2nc(-c3nc4ccc(CN5CCCC5)cc4[nH]3)co2)c2cc(Cl)ccc21 [Example 13, 2-{2-[5-Chloro-1-(2-methylpropyl)-1H-indol-3-yl]-1,3-oxazol-4-yl}-5-(1-pyrrolidinylmethyl)-1H-benzimidazole dihydrochloride] | 
≤ 1 |  | CCNCc1ccc2nc(-c3coc(-c4cn(CC(C)C)c5ccc(Cl)cc45)n3)[nH]c2c1 [Example 14, [(2-{2-[5-Chloro-1-(2-methylpropyl)-1H-indol-3-yl]-1,3-oxazol-4-yl}-1H-benzimidazol-5-yl)methyl]ethylamine dihydrochloride] | 

More lines, now with the values behind:

SMILES | IC50 [1] [µM] | Ki (human EP1 receptor) [µM] | activity in the calcium mobilisation assay (human EP1 receptor; human EP1, CHO-K1 cells)
O=C(NC1CCOCC1)c1coc(-c2cn(CC3CC3)c3ccc(Cl)cc23)n1 [Example 1, 2-[5-Chloro-1-(cyclopropylmethyl)-1H-indol-3-yl]-N-(tetrahydro-2H-pyran-4-yl)-1,3-oxazole-4-carboxamide] | ≤ 1 |  | inactive
O=C(NN1CCOCC1)c1coc(-c2cn(CC3CC3)c3ccc(Cl)cc23)n1 [Example 2, 2-[5-Chloro-1-(cyclopropylmethyl)-1H-indol-3-yl]-N-4-morpholinyl-1,3-oxazole-4-carboxamide] | ≤ 0.316 | ≤ 1 | 
O=C(NN1CCOCC1)c1coc(-c2cn(C3CCCC3)c3ccc(Cl)cc23)n1 [Example 3, 2-(5-Chloro-1-cyclopentyl-1H-indol-3-yl)-N-4-morpholinyl-1,3-oxazole-4-carboxamide] | ≤ 0.316 | ≤ 0.316 | 
CC(C)Cn1cc(-c2nc(C(=O)Nc3cccnc3)co2)c2cc(Cl)ccc21 [Example 5, 2-[5-Chloro-1-(2-methylpropyl)-1H-indol-3-yl]-N-3-pyridinyl-1,3-oxazole-4-carboxamide] | ≤ 0.316 | ≤ 0.316 | 
CC(C)Cn1cc(-c2nc(C(=O)NCC3CCOCC3)co2)c2cc(Cl)ccc21 [Example 7, 2-[5-Chloro-1-(2-methylpropyl)-1H-indol-3-yl]-N-(tetrahydro-2H-pyran-4-ylmethyl)-1,3-oxazole-4-carboxamide] | ≤ 0.316 | ≤ 0.316 | 
CC(C)Cn1cc(-c2nc(-c3nc4cc(CO)ccc4[nH]3)co2)c2cc(Cl)ccc21 [Example 11, (2-{2-[5-Chloro-1-(2-methylpropyl)-1H-indol-3-yl]-1,3-oxazol-4-yl}-1H-benzimidazol-5-yl)methanol] | ≤ 0.316 | ≤ 0.316 | 
